Laboratory results reported in patent publication US7192746B2, “α-Isomaltosyltransferase, process for producing the same and use thereof” (Kabushiki Kaisha Hayashibara Seibutsu Kagaku Kenkyujo, priority 2000, dated 2007).

What was measured:
Type in all cases: biochemical
[1] = system: α-isomaltosyl-transferring enzyme from Arthrobacter globiformis A19; test: Action on saccharides (substrates, TLC); parameters: key: −: there was found no substrate change before and after the enzymatic reaction; +: there were found both the reduction of substrate and the formation of cyclotetrasaccharide after the enzymatic reaction; conditions: partially purified enzyme, 2 units/g substrate, 2% (w/v) substrate, 30° C., pH 6.0, 24 hours
How it was run: (§1)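 Each candidate saccharide, from malto- and isomalto-oligosaccharides to cyclodextrins, starch, pullulan and dextran, was prepared at 2% (w/v). Two units/g substrate of enzyme were added, then the mixture was held at pH 6.0, 30° C., 24 hours. Samples were then analysed by silica gel TLC.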

[2] = system: α-isomaltosyl-transferring enzyme from Bacillus globisporus N75; test: Action on saccharides (substrates, TLC); parameters: key: −: there was found no substrate change before and after the enzymatic reaction; +: there were found both the reduction of substrate and the formation of cyclotetrasaccharide after the enzymatic reaction; conditions: 2 units/g substrate, 2% (w/v) substrate, 30° C., pH 6.0, 24 hours
How it was run: as §1

[3] = system: α-isomaltosyl-transferring enzyme from Bacillus globisporus C9; test: Action on saccharides (substrates, TLC); parameters: key: −: there was found no substrate change before and after the enzymatic reaction; +: there were found both the reduction of substrate and the formation of cyclotetrasaccharide after the enzymatic reaction; conditions: 2 units/g substrate, 2% (w/v) substrate, 30° C., pH 6.0, 24 hours
How it was run: as §1

[4] = system: α-isomaltosyl-transferring enzyme from Bacillus globisporus C11; test: Action on saccharides (substrates, TLC); parameters: key: −: there was found no substrate change before and after the enzymatic reaction; +: there were found both the reduction of substrate and the formation of cyclotetrasaccharide after the enzymatic reaction; conditions: 2 units/g substrate, 2% (w/v) substrate, 30° C., pH 6.0, 24 hours
How it was run: as §1

[5] = system: α-isomaltosyl-transferring enzyme from Arthrobacter ramosus S1; test: Action on saccharides (substrates, TLC); parameters: key: −: there was found no substrate change before and after the enzymatic reaction; +: there were found both the reduction of substrate and the formation of cyclotetrasaccharide after the enzymatic reaction; conditions: 2 units/g substrate, 2% (w/v) substrate, 30° C., pH 6.0, 24 hours
How it was run: as §1

[6] = system: α-isomaltosyl-transferring enzyme from Bacillus globisporus C9; test: Specificity to transferring acceptor; conditions: panose as saccharide donor, 10 units/g substrate, 3.2% (w/v), 30° C., pH 6.0, 24 hours
How it was run: (§2)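 Each candidate acceptor was mixed with panose donor at equal concentration, then given 10 units/g substrate of enzyme (purified, or partially purified for strain A19) at 3.2% (w/v) total saccharide. Reactions ran 24 hours at 30° C., pH 6.0, and were scored for presence or absence of transfer product.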

[7] = system: α-isomaltosyl-transferring enzyme from Bacillus globisporus C11; test: Specificity to transferring acceptor; conditions: panose as saccharide donor, 10 units/g substrate, 3.2% (w/v), 30° C., pH 6.0, 24 hours
How it was run: as §2

For `OC[C@@H](O)[C@@H](O[C@H]1O[C@H](CO)[C@@H](O)[C@H](O)[C@H]1O)[C@H](O)[C@@H](O)CO` [Maltitol, maltitol], the “Enzymatic action for forming cyclotetrasaccharide, Enzyme of Strain A19” value [1] was “−”, the “Enzymatic action for forming cyclotetrasaccharide, Enzyme of Strain N75” value [2] was “−” and the “Enzymatic action for forming cyclotetrasaccharide, Enzyme of Strain C9” value [3] was “−”. The “Enzymatic action for forming cyclotetrasaccharide, Enzyme of Strain C11” value [4] was “−”, the “Enzymatic action for forming cyclotetrasaccharide, Enzyme of Strain S1” value [5] was “−” and the “Product of transferring reaction, Enzyme of Strain C9” value [6] was “+ (a saccharide-transferred product was formed in an amount of over one percent but below 10% to the total sugars)”. The “Product of transferring reaction, Enzyme of Strain C11” value [7] was “+ (a saccharide-transferred product was formed in an amount of over one percent but below 10% to the total sugars)”.
